Results published in patent publication US7589077B2, “Antiviral nucleosides” (priority 2001, dated 2009).
≈ marks a conversion by molar mass, not a printed value. Like-named read-outs stand apart in the source and are kept apart here.

Legend:
[1] = Cell viability in HFF cells (neutral red); type: cell-based, human; settings: human, HFF cells
Procedure: (§1) Twenty-four hours prior to assay HFF cells were plated into 96 well plates at a concentration of 2.5×10^4 cells per well. […] The plates were incubated for 7 days in a CO2 incubator at 37° C. At this time the media/drug was aspirated and 200 μL/well of 0.01% neutral red in Dulbecco's Phosphate Buffered Saline (DPBS) was added. This was incubated in the CO2 incubator for 2 h, the dye was aspirated and the cells were washed using a Nunc Plate Washer. After removing the DPBS wash, […] of 50% EtOH: 1% glacial acetic acid in water was added. The plates were rotated for 15 min. and the optical densities were read at 550 nm on a plate reader.

human HBV = experiment: HBV DNA replication in HepG2 2.2.15 cells; type: cell-based, hepatitis B virus
Procedure: The compounds were assayed for a) their ability to inhibit DHBV DNA replication in duck hepatocytes, b) their ability to inhibit HBV DNA replication in HepG2 2.2.15 cells, c) the cell cytotoxicity in Vero cells, the cell viability in HFF cells, d) the cell proliferation in HFF cells, and e) the T cell proliferation (purified T cells, PHA stimulated). 3-TC was used as a control. Additional compounds described below in the Preparative Examples section were also tested, and the results are shown in Tables 2-4 below. The reference numbers for the compounds are found in the Preparative Examples.

[2] = tested on: duck hepatitis B virus (DHBV); experiment: DHBV DNA replication in primary duck hepatocytes (dot blot hybridization); type: cell-based
Procedure: A series of compounds were synthesized and assayed for activity against duck hepatitis B virus (DHBV). […] Test compounds were added to the hepatocyte cultures on day 2 and maintained in culture with media changed every second day until day 12. Cell were harvested at day 14 and lysed with buffer containing 1% SDS. DNA was isolated from the lysate and dot blot hybridization was performed using a DHBV (32P) DNA probe. […]
(§2) The compounds were assayed for a) their ability to inhibit DHBV DNA replication in duck hepatocytes, b) their ability to inhibit HBV DNA replication in HepG2 2.2.15 cells, c) the cell cytotoxicity in Vero cells, the cell viability in HFF cells, d) the cell proliferation in HFF cells, and e) the T cell proliferation (purified T cells, PHA stimulated). 3-TC was used as a control.

[3] = Cell cytotoxicity in Vero cells; type: cell-based; settings: African green monkey, Vero cells
Procedure: as §2

HFF cells [4] = experiment: Cell proliferation assay in HFF cells; type: cell-based, human; settings: Table 2; for IC50: Homo sapiens, HFF
Procedure: The media from the wells was then aspirated and 2 mL of each drug concentration was then added to each well. The cells were incubated in a CO2 incubator at 37° C. for 72 h. At the end of this time, the media-drug solution was removed and the cells were washed. […] The cell-media mixture was then pipetted up and down vigorously to break up the cell suspension and 0.2 mL of the mixture was added to 9.8 mL of isoton III and counted using a Coulter Counter. Each sample was counted three times with three replicate wells per sample.

HCMV (AD169) = experiment: CPE inhibition assay HCMV (AD169) in HFF cells; type: cell-based, human cytomegalovirus; settings: Human betaherpesvirus 5, AD169, HFF; Table 2
Procedure: (§3) Cytopathic effect (CPE) inhibition assays for HSV-1, HSV-2, HCMV and VZV were performed as follows: Low passage human foreskin fibroblasts (HFF) cells were seeded into 96 well tissue culture plates 24 h prior to use at a cell concentration of 2.5×10^4 cells per mL in 0.1 mL of minimal essential medium (MEM) supplemented with 10% fetal bovine serum (FBS). The cells were then incubated for 24 h at 37° C. in a CO2 incubator. After incubation, the medium was removed and 100 μL of MEM containing 2% FBS was added to all but the first row. In the first row, 125 μL of experimental drug was added in triplicate wells. Medium alone was added to both cell and virus control […]. After incubation, the medium was removed and 100 μl of MEM containing 2% FBS was added to all but the first row. Medium alone was added to both cell and virus control wells. 125 μl of Experimental drug was added in triplicate wells. The drug in the first row of wells was then diluted serially 1:5 throughout the remaining wells by transferring 25 μL using the Cetus Liquid Handling Machine. After dilution of drugs, 100 μL of the appropriate virus concentration was added to each well, excluding the cell control wells which received 100 μL of MEM. For HSY-1 and HSV-2 assays, the virus concentration utilized was 1000 PFU's per well. For CMV and VZV assays, the virus concentration added was 2500 PFU's per well. The plates were then incubated at 37° C. in a CO2 incubator for 3 days for HSV-1 and HSV-2, 10 days for VZV, or 14 days for CMV. After the incubation period, media was aspirated and the cells stained with a 0.1% crystal violet solution for 30 min. The stain was then removed and the plates were allowed to dry 24 h and then read on a Skatron Plate Reader at 620 nm.

VZV (Ellen) = experiment: CPE inhibition assay VZV (Ellen) in HFF cells; type: cell-based, varicella zoster virus; settings: Human alphaherpesvirus 3, HFF, Table 2
Procedure: as §3

HFF cells [5] = experiment: Cell viability in HFF cells (neutral red); type: cell-based, human
Procedure: as §1

Vero cells = experiment: Cell cytotoxicity in Vero cells; type: cell-based
Procedure: as §2

HSV-1 (KOS) HSV-TK+ = HSV-1 (KOS) HSV-TK+ antiviral assay; type: cell-based, Herpes simplex virus type-1; settings: Table 4
Procedure: as §3

HSV-1 (KOSSB) HSV-TK− = experiment: microbe, parasite or virus in culture; type: cell-based, Herpes simplex virus type-1; settings: Table 4
Procedure: as §3, with “The” for “Cytopathic effect (CPE) inhibition assays for HSV-1, HSV-2, HCMV and VZV were performed as follows: Low passage human foreskin fibroblasts (HFF) cells were seeded into 96 well tissue culture plates 24 h prior to use at a cell concentration of 2.5×10^4 cells per mL in 0.1 mL of minimal essential medium (MEM) supplemented with 10% fetal bovine serum (FBS). The”

Epstein-Barr Virus (EBV) = experiment: EBV immunofluorescence assay in DAUDI cells (P3HR-1 strain); type: cell-based
Procedure: The immunofluorescence assay, using monoclonal antibodies, for Epstein-Barr Virus (EBV) was performed as follows: DAUDI cells were infected with the P3HR-1 strain of EBV and the test drug was added after adsorption (45 min. at 37° C.) and washing of the cell cultures. These cultures were then incubated for 2 days in complete medium to allow viral gene expression. Following the 48 h incubation period, the number of cells in each sample were counted and smears were made. Monoclonal antibodies to the different early antigen (EA) components and VCA were than added to the cells, incubated and washed. This was followed by the addition of a fluorescein conjugated rabbit anti mouse Ig antibodies. The number of fluorescence positive cells in the smears were counted and the total number of cells in the cultures positive for EA or VCA were then calculated and compared.

[6] = Duck hepatitis B virus, Hepatocyte, read-out: % Inh. of DHBV DNA in duck hepatocytes @ 10 μg/ml
[7] = Duck hepatitis B virus, Hepatocyte, Table 2, value in brackets, read-out: DHBV DNA in duck hepatocytes [EC50, μg/ml]

Structure (SMILES) | inhibition at 10 µg/mL [2, 6] [%] | EC50 [2, 7] [µg/mL] | CC50 at 7 days ([1]; Table 2) [µg/mL] | CC50 ([3]; Table 2) [µg/mL] | IC50 (HFF cells [4]) [µg/mL] | EC50 (HCMV (AD169)) [µg/mL] | EC50 (VZV (Ellen)) [µg/mL] | other results
Nc1ccn([C@@H]2CS[C@H](CO)O2)c(=O)n1 [Compound 3-TC, lamivudine, reference compound] | 96 | 0.01 to 0.05 |  |  |  |  |  | CC50 at 7 days ([1]; Table 5): > 100 µg/mL; inhibition at 0.1 µg/mL (human HBV; Hepatitis B virus, HepG2 2.2.15, read-out: % Inh. of human HBV DNA replication in HepG2 2.2.15 cells @ 0.1 μg/ml (left)): 90%; inhibition at 1 µg/mL ([2]; Duck hepatitis B virus, Hepatocyte, read-out: % Inhibition of DHBV DNA in duck hepatocytes @1.0 μg/ml): 95%; inhibition at 10 µg/mL ([2]; Duck hepatitis B virus, Hepatocyte, read-out: % Inhibition of DHBV DNA in duck hepatocytes @10.0 μg/ml): 100%; EC50 ([2]; Duck hepatitis B virus, Hepatocyte, Table 3a, read-out: % Inhibition of DHBV DNA in duck hepatocytes EC50): 70 nM; CC50 ([3]; Table 5): > 100 µg/mL
C=C(N=[N+]=[N-])c1cn(COCCO)c(=O)[nH]c1=O [Compound 7, 1-[(2-hydroxyethoxy)methyl]-5-(1-azidovinyl)-uracil] | 84 | 0.01 to 0.1 | > 100 | > 100 | > 100 |  |  | 
[N-]=[N+]=NC(CCl)c1cn(COC(CO)CO)c(=O)[nH]c1=O (stereo not drawn) [Compound 10b, 1-[(2-Hydroxy-1-(hydroxymethyl)ethoxy)methyl]-5-(1-azido-2-chloroethyl)uracil] | 75 | 1 to 5 | > 100 | > 200 | > 100 | 10 (≈ 31.3 µM) | 5 (≈ 15.6 µM) | 
[N-]=[N+]=NC(CI)c1cn(COC(CO)CO)c(=O)[nH]c1=O (stereo not drawn) [Compound 10c, 1-[(2-Hydroxy-1-(hydroxymethyl)ethoxy)methyl]-5-(1-azido-2-iodoethyl)uracil] | 75 | 1 to 5 | > 100 | > 200 | > 100 | 10 (≈ 24.3 µM) | 1 (≈ 2.43 µM) | 
C=C(N=[N+]=[N-])c1cn(COC(CO)CO)c(=O)[nH]c1=O [Compound 13] |  |  |  |  |  |  |  | Cell viability HFF cells CC50 (HFF cells [5]; Table 2): >100 µg/mL; % Inh. of human HBV DNA replication in HepG2 2.2.15 cells @ 0.01 μg/ml (right) (human HBV; Table 2, 0.01 μg/ml): 17.0%; % Inh. of human HBV DNA replication in HepG2 2.2.15 cells @ 0.1 μg/ml (left) (human HBV; Table 2, 0.1 μg/ml): 75.4%; DHBV DNA in duck hepatocytes [EC50, μg/ml] ([2]; Table 2, value in brackets): 0.01 to 0.1 µg/mL; % Inh. of DHBV DNA in duck hepatocytes @ 10 μg/ml ([2]; Table 2, 10 μg/ml): 85.6%; Cell Cytotoxicity, Vero cells CC50 (Vero cells; Table 2): >200 µg/mL; Cell proliferation, HFF cells IC50 (HFF cells [4]): >100 µg/mL
[N-]=[N+]=NC(CCl)c1cn(CCC(CO)CO)c(=O)[nH]c1=O (stereo not drawn) [Compound 21b, 1-[4-Hydroxy-3-(hydroxymethyl)-1-butyl]-5-(1-azido-2chloroethyl)uracil] | 84 | 0.1 to 0.5 | > 100 | > 200 | > 100 | 1 (≈ 3.15 µM) | 6 (≈ 18.9 µM) | 
C=C(N=[N+]=[N-])c1cn(CCC(CO)CO)c(=O)[nH]c1=O [Compound 26, 1-[4-Hydroxy-3-(hydroxymethyl),1-butyl]-5-(1-azidovinyl)uracil] | 93 | 0.01 to 0.05 | > 100 | > 200 | > 100 |  |  | 
CC1(F)C(=O)NC(=O)N2C3CC(N=[N+]=[N-])C(COC21)O3 [Compound R-13, (5R,6S)5-fluoro-O^6-5′-cyclo-5,6-dihydro-3′-azido-3′-deoxythymidine] |  |  |  |  |  |  |  | HSV-1 (KOS) HSV-TK+ EC50 (HSV-1 (KOS) HSV-TK+): >25 µg/mL; HSV-1 (KOSSB) HSV-TK− EC50 (HSV-1 (KOSSB) HSV-TK−): >50 µg/mL; % Inhibition of DHBV DNA replication in duck hepatocytes @10 μg/ml [2]: 36.0%; CC50 (Vero cells; Table 1): > 700 µM
CCC1(F)C(=O)NC(=O)N([C@@H]2O[C@H](CO)[C@@H](O)[C@@H]2F)C1OC (stereo partly drawn) [RC-1, 5-Ethyl-5-fluoro-6-methoxy-5,6-dihydro-2′-arabinofluoro-2′-deoxyuridine] |  |  |  |  |  |  |  | Cell viability HFF cells CC50 (HFF cells [5]; Table 5): >100 µg/mL; EBV EC50 (Epstein-Barr Virus (EBV); Table 5): <0.08 µg/mL; EBV EC90 (Epstein-Barr Virus (EBV); Table 5, in parentheses): (EC90 = <0.08) μg/ml; Cell Cytotoxicity, Vero cells CC50 (Vero cells; Table 5): >100 µg/mL
